This note sets out measurements from ChEMBL document CHEMBL3098059, “Identification by in silico and in vitro screenings of small organic molecules acting as reversible inhibitors of kallikreins” (Eur J Med Chem, 2013).

Activity calls are given as the source filed them. The calls are words filed in the database; no cut-off is given here. Where only a bound is given, the exact number is not on record here.

A short description of series [1]: Cytotoxicity against human keratinocytes assessed as cell viability at 1 uM after 24 to 48 hrs by neutral red assay. It is filed as cell-based. The conditions noted are these: keratinocyte.
Series [2] in a line: Cytotoxicity against human keratinocytes assessed as cell viability at 10 uM after 24 to 48 hrs by neutral red assay. The conditions noted are these: keratinocyte, 10 µM. The format is cell-based, Keratinocyte.
For series [3], the target named is T1, Kallikrein-7 (Homo sapiens, UniProt P49862). As to the kind of experiment: Ratio of Ki for mixed-type inhibition of human kallikrein7 assessed as enzyme-substrate-inhibitor complex to Ki for mixed-type inhibition of human kallikrein7 assessed as enzyme-inhibitor complex.
Target sequence in this assay (P49862 30-253 limits assumed): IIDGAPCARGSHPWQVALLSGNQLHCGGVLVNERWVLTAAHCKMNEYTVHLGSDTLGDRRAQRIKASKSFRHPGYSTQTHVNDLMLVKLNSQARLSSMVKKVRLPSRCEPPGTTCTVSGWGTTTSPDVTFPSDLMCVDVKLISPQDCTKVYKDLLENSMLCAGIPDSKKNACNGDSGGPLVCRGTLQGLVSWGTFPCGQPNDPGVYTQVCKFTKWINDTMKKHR
Series [4] has as its target T1, Kallikrein-7. In words: Mixed-type inhibition of human kallikrein7 using Suc-Leu-Leu-Val-Tyr-AMC as substrate assessed as enzyme-substrate-inhibitor complex after 15 to 60 mins by Lineweaver-Burk/Eadie-Hofstee plot analysis.
Target sequence in this assay (P49862 whole entry): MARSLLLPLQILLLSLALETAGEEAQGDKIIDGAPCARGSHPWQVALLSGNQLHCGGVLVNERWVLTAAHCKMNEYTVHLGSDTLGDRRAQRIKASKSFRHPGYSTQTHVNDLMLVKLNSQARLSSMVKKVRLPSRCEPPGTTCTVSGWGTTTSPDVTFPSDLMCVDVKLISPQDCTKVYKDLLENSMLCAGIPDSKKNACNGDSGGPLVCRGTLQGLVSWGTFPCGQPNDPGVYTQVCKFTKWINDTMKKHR
In series [5] the target is T1, Kallikrein-7. In words: Mixed-type inhibition of human kallikrein7 using Suc-Leu-Leu-Val-Tyr-AMC as substrate assessed as enzyme-inhibitor complex after 15 to 60 mins by Lineweaver-Burk/Eadie-Hofstee plot analysis.
Target sequence in this assay (P49862 whole entry): as above
Series [6] deals with T2, Kallikrein-5 (Homo sapiens, UniProt Q9Y337).
T2 sequence (Q9Y337 whole entry): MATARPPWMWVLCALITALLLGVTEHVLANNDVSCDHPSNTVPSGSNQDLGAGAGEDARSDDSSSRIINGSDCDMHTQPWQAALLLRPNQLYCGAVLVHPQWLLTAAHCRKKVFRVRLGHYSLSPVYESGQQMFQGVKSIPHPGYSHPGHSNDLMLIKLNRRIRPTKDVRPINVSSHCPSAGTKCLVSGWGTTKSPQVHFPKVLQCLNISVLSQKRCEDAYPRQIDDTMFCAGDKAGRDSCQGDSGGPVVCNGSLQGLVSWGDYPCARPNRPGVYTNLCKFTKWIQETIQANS
In words: Competitive inhibition of human kallikrein5 using Boc-Val-Pro-Arg-AMC as substrate after 15 to 60 mins by Lineweaver-Burk/Eadie-Hofstee plot analysis.

Series [7] has as its target T3, Suppressor of tumorigenicity 14 protein (Homo sapiens) (UniProt Q9Y5Y6).
T3 sequence (whole entry): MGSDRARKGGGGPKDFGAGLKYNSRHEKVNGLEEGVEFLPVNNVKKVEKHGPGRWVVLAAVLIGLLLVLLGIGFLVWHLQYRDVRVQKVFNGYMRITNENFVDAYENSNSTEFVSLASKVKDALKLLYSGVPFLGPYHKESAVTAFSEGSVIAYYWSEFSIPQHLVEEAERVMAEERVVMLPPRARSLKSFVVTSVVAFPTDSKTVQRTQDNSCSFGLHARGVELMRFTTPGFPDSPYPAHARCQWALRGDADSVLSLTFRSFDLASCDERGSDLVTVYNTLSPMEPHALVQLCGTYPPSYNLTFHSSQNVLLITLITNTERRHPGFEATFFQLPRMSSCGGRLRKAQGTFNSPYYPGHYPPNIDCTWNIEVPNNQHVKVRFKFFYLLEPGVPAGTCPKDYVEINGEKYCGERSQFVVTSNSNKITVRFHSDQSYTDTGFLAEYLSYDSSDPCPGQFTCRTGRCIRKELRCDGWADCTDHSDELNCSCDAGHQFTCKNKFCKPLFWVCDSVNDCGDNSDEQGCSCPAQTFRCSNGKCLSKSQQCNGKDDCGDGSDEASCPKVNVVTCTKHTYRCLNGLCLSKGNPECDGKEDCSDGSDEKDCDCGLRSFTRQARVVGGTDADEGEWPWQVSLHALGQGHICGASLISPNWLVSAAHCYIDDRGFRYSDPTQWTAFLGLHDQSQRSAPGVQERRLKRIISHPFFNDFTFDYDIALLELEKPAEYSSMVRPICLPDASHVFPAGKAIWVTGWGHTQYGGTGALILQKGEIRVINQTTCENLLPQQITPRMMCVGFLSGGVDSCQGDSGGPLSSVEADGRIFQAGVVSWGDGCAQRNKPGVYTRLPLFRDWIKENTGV
In words: Reversible inhibition of matriptase (unknown origin) using Boc-Gln-Ala-Arg-AMC as substrate after 15 to 60 mins by fluorescence assay.

Series [8] concerns the target T4, Kallikrein-14 (Homo sapiens) (UniProt Q9P0G3).
T4 sequence (whole entry): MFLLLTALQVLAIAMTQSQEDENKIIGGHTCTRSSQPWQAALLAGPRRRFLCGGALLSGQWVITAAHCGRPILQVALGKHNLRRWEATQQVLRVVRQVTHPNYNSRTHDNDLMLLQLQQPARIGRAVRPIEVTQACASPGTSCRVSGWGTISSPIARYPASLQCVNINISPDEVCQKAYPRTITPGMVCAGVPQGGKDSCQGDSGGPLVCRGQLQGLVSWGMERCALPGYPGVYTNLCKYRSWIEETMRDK
As to the kind of experiment: Reversible inhibition of human kallikrein14 using Boc-Val-Pro-Arg-AMC as substrate after 15 to 60 mins by fluorescence assay.

In series [9] the target is T1, Kallikrein-7. As to the kind of experiment: Reversible inhibition of human kallikrein7 using Suc-Leu-Leu-Val-Tyr-AMC as substrate after 15 to 60 mins by fluorescence assay.
Target sequence in this assay (P49862 30-253 limits assumed): as the sequence (P49862 30-253 limits assumed) above
Series [10] addresses Kallikrein-5 (Homo sapiens) (UniProt Q9Y337). As to the kind of experiment: Reversible inhibition of human kallikrein5 using Boc-Val-Pro-Arg-AMC as substrate after 15 to 60 mins by fluorescence assay.
Series [11] has as its target T5, Suppressor of tumorigenicity 14 protein (Homo sapiens, UniProt Q9Y5Y6).
T5 sequence (Q9Y5Y6 whole entry): T3 sequence (whole entry)
As to the kind of experiment: Inhibition of matriptase (unknown origin) using Boc-Gln-Ala-Arg-AMC as substrate after 15 mins by fluorescence assay.

A further series deals with T6, Kallikrein-14 (Homo sapiens, UniProt Q9P0G3).
T6 sequence (Q9P0G3 whole entry): T4 sequence (whole entry)
As to the kind of experiment: Inhibition of human kallikrein14 using Boc-Val-Pro-Arg-AMC as substrate after 15 mins by fluorescence assay.

In series [12] the target is T1, Kallikrein-7. As to the kind of experiment: Inhibition of human kallikrein7 using Suc-Leu-Leu-Val-Tyr-AMC as substrate after 15 mins by fluorescence assay.
Target sequence in this assay (P49862 whole entry): as the sequence (P49862 whole entry) above
The target in series [13] is T2, Kallikrein-5. In words: Inhibition of human kallikrein5 using Boc-Val-Pro-Arg-AMC as substrate after 15 mins by fluorescence assay.
Series [14] can be described thus: Cytotoxicity against human keratinocytes assessed as cell viability at 100 uM after 24 to 48 hrs by neutral red assay. It is filed as cell-based. The conditions noted are these: keratinocyte.
Series [15] addresses Kallikrein-5 (Homo sapiens) (UniProt Q9Y337). As to the kind of experiment: Competitive inhibition of human kallikrein5 using Boc-Val-Pro-Arg-AMC as substrate at 50 uM after 15 to 60 mins by Lineweaver-Burk/Eadie-Hofstee plot analysis.
Series [16] addresses T3, Suppressor of tumorigenicity 14 protein (Homo sapiens). In words: Inhibition of matriptase (unknown origin) using Boc-Gln-Ala-Arg-AMC as substrate at 50 uM after 15 mins by fluorescence assay.
The target of series [17] is T4, Kallikrein-14 (Homo sapiens). As to the kind of experiment: Inhibition of human kallikrein14 using Boc-Val-Pro-Arg-AMC as substrate at 50 uM after 15 mins by fluorescence assay.
In series [18] the target is Kallikrein-5 (Homo sapiens) (UniProt Q9Y337). As to the kind of experiment: Inhibition of human kallikrein5 using Boc-Val-Pro-Arg-AMC as substrate at 50 uM after 15 mins by fluorescence assay.

In the case of `COc1ccc(/C=C2/SC(=O)N(CNc3cc(F)ccc3C)C2=O)cc1OC`, the Activity entry in series [1] and in [2] was “Non-toxic” in each case. Also, the Ratio Ki on Kallikrein-7 [3] was found to be 2. Also, the Ki at Kallikrein-7 [4] was 166 µM; at Kallikrein-7 [5], 83 µM; on Kallikrein-5 [6] it was 95 µM. Besides, the inhibition entry (in series [7]; in series [8]; at Kallikrein-7 [9]; in series [10]) was “Active” each time. Moreover, the half-inhibitory concentration (IC50) was determined as 103 µM in series [11], 112 µM at Kallikrein-14, 106 µM against Kallikrein-7 [12] and 117 µM at Kallikrein-5 [13].

For the compound `COc1cc(/C=C(/C#N)C(=O)Nc2ccc(O)cc2)ccc1O`, the Ratio Ki on Kallikrein-7 [3] is 2. Also, the inhibition constant Ki on Kallikrein-7 [4] was determined as 129 µM; at Kallikrein-7 [5] it was 70 µM; on Kallikrein-5 [6], 112 µM. Further, the inhibition result (in [7]; in [8]; on Kallikrein-7 [9]; in series [10]) was “Active” throughout. For the same compound, the half-inhibitory concentration (IC50) in series [11] is 111 µM; at Kallikrein-14, 106 µM; against Kallikrein-7 [12] it was 107 µM; against Kallikrein-5 [13], 131 µM.

As to `COc1ccc(NC(=O)/C(C#N)=C\c2ccc(O)c(OC)c2)cc1`, at Kallikrein-7 [3], the Ratio Ki was 2. Besides, the figures for the Ki at Kallikrein-7 [4], on Kallikrein-7 [5] and on Kallikrein-5 [6] were 164 µM, 72 µM and 100 µM, respectively. Moreover, the inhibition entry (in series [7]; in series [8]; on Kallikrein-7 [9]; in series [10]) was “Active” throughout. In addition, the 50% inhibitory concentration (IC50) in series [11] was 120 µM; against Kallikrein-14, 99 µM; against Kallikrein-7 [12], 90 µM; against Kallikrein-5 [13] it was 127 µM.

With `Nc1ccc2[nH]c(SCc3nc4ccccc4c(=O)n3-c3cccc(C(F)(F)F)c3)nc2c1`, the Activity result in series [14], in [1] and in series [2] was “Non-toxic” throughout. Further, on Kallikrein-7 [3], the Ratio Ki was 2. Also, the results for the inhibitory constant (Ki) on Kallikrein-7 [4] and on Kallikrein-7 [5] were 44 µM and 15 µM, respectively. Further, the inhibition in series [15], in series [16], in series [17] and in series [18] was less than 30% throughout. Also, the inhibition result (in series [7]; in [8]; at Kallikrein-7 [9]; in series [10]) was “Active” throughout. For the same compound, on Kallikrein-7 [12], inhibition was half-maximal at 25 µM (IC50).

For `COc1cc(/C=C(/C#N)c2nc3ccccc3[nH]2)ccc1OCC(=O)N1CCOCC1`, the Activity entry in series [14], in [1] and in series [2] was “Non-toxic” each time. On Kallikrein-7 [3], the Ratio Ki was found to be 2. In addition, the Ki at Kallikrein-7 [4] stood at 131 µM; at Kallikrein-7 [5] it was 55 µM; at Kallikrein-5 [6], 121 µM. For the same compound, the inhibition result (in series [7]; in [8]; at Kallikrein-7 [9]; in [10]) was “Active” in each case. For the same compound, the IC50 in series [11] came out at 128 µM; on Kallikrein-14 it was 108 µM; against Kallikrein-7 [12] it was 83 µM; on Kallikrein-5 [13], 125 µM.

As to `CCOc1cc(/C=C(/C#N)C(=O)Nc2ccc(O)cc2)ccc1O`, the Activity result in series [1] and in series [2] was “Non-toxic” each time. The Ratio Ki at Kallikrein-7 [3] is 2. In addition, the inhibitory constant (Ki) at Kallikrein-7 [4] turned out to be 152 µM; on Kallikrein-7 [5], 75 µM; at Kallikrein-5 [6] it was 107 µM. The inhibition entry (in [7]; in [8]; at Kallikrein-7 [9]; in [10]) was “Active” each time. Besides, the IC50 was 98 µM in series [11], 101 µM against Kallikrein-14, 94 µM against Kallikrein-7 [12] and 117 µM on Kallikrein-5 [13].

For `CNC(=O)c1ccc(Nc2nnc(-c3ccc(O)cc3)c3ccccc23)cc1`, the Activity result in [1] and in [2] was “Non-toxic” in each case. For the same compound, the Ratio Ki on Kallikrein-7 [3] was 2. The Ki at Kallikrein-7 [4] turned out to be 166 µM; on Kallikrein-7 [5], 50 µM. Further, the inhibition in series [15], in [16] and in series [18] was less than 30% throughout. In addition, the inhibition result (in series [7]; in [8]; at Kallikrein-7 [9]; in series [10]) was “Active” throughout. Moreover, the IC50 came out at 96 µM on Kallikrein-14 and 66 µM against Kallikrein-7 [12].

`CCOc1cccc(NC(=O)/C(C#N)=C\c2ccc(OCC(=O)O)c(OC)c2)c1`: the Activity entry in series [1] and in series [2] was “Non-toxic” throughout. The Ratio Ki at Kallikrein-7 [3] worked out at 2. Also, the Ki on Kallikrein-7 [4] came to 140 µM; at Kallikrein-7 [5] it was 95 µM. Also, the inhibition in [15] and in [18] was less than 30% in each case. Moreover, the inhibition result (in series [7]; in series [8]; at Kallikrein-7 [9]; in series [10]) was “Active” in each case. Also, the IC50 came out at 75 µM in series [11], 87 µM at Kallikrein-14 and 113 µM on Kallikrein-7 [12].

By Ki is commonly meant a dissociation constant, usually derived from enzyme kinetics or from competition with a known ligand. By inhibition is commonly meant the relative decrease from the control value, in per cent. The term IC50 denotes the concentration that inhibits the measured activity by half. A higher IC50 goes with a need for much substance.
